# How the values were obtained:
# Klebsiella pneumonia = test: Contact killing on treated stainless steel coupons (large droplet inoculation); format: cell-based; conditions: in as little as four hours
# P. aeroguinosa = test: Agar testing of treated titanium coupons; format: cell-based; conditions: titanium coupons affixed to agar petri dishes; control fully colonized
# Source text: The titanium coupon samples were subjected to agar testing in which the samples were affixed to agar petri dishes and inoculated with P. aeroguinosa.
# Pseudomonas sp. CT07 = test: Contact killing on treated stainless steel coupons (large droplet inoculation); format: cell-based; conditions: in as little as four hours
# Salmonella enteriditis = test: as above; format: cell-based; conditions: in as little as four hours
# Staphylococcus aureus [1] = test: Minimum inhibitory concentration determination; format: cell-based
# Source text: Test organisms included gram-positive and gram-negative bacterial strains: Staphylococcus aureus, Listeria monocytogenes, Salmonella interiditis, and Escherichia coli.
# Salmonella = test: Contact killing on treated titanium coupons; format: cell-based; conditions: after three hours of drying on the titanium surface
# Experimental: (§1) A one inch by inch TiO2 square was sanded with 600 grain size sand paper, followed by an ethanol (EtOH) rinse. Samples were stored in a 120° C. oven prior to use. A 10 mM solution of compound 3 in EtOH was aerosol spayed onto the TiO2 square, allowed to air dry and placed into 120° C. oven overnight to anneal the compound followed by an EtOH rinse. Spaying, annealing and rinsing were repeated two more times.
# (§2) The following bacteria were tested: Pseudomonas sp. CT07, Salmonella enteriditis, Klebsiella pneumonia, Listeria monocytogenes, Arthrobacter, Staphylococcus aureus, Pseudomonas aeruginosa PA01 and Escherichia coli. The preparation of the inoculant was performed by growing overnight cultures (10^5-10^8 cfu/ml) in 10% tryptic soy broth at room temperature and with agitation. The cells were then washed from the broth by using a centrifuge at 9000×g for 2 minutes. This step was performed to remove a nutrition source for the bacteria during the test phase.
# (§3) Stainless steel coupons were treated by overnight immersion in a 1% ethanolic solution (aqueous solutions may also be used) of antimicrobial phosphonate and an overnight cure at 100° C. Untreated control (“C”), compound 2 (“S1”), compound 3 (“S2”) and Bio-Protect® AM500 silicone quaternary ammonium salt (N-(3-(trimethoxy)silylpropyl)-N,N-dimethyloctadecan-1-ammonium chloride) treated (“BSC”) stainless steel coupons were then inoculated with 0.1 mL of the overnight bacterial inoculant and were then placed in a fumehood to allow the samples to dry for 2 hours. After the appropriate time lapse the coupons were then placed into a 10 mL tube of sterile 0.9% saline and vigorously vortexed for a minute to remove the adherent cells. A dilution series was made from this solution and the series was plated onto 10% tryptic soy agar plates for enumeration. This was again repeated after 4 hours, 6 hours and 24 hours of drying.
# (§4) Titanium metal coupons were treated similarly as above and tested for antibacterial activity against Salmonella and S. aureus.
# S. aureus = test: Contact killing on treated titanium coupons; format: cell-based; conditions: after three hours of drying on the titanium surface
# Experimental: as §1, §2, §3, §4
# Escherichia coli [2] = test: Contact killing on treated stainless steel coupons (large droplet inoculation); format: cell-based; conditions: for change in colony forming units (cfu): in as little as four hours
# Listeria monocytogenes [3] = test: as above; format: cell-based
# Pseudomonas PA01 = test: as above; format: cell-based, Pseudomonas aeruginosa PA01; conditions: in as little as four hours
# Staphylococcus aureus [4] = test: as above; format: cell-based; conditions: in as little as four hours
# Arthrobacter [5] = test: as above; format: cell-based; conditions: in as little as four hours
# Arthrobacter [6] = test: Antimicrobial surface treatment durability (retest after saline storage); format: cell-based; conditions: treated titanium coupons stored in saline for 24 hours, washed, dried, re-innoculated
# Experimental: Titanium metal coupons treated with compound 2 as in Example 28 were further tested for surface treatment durability. The treated coupons were stored in saline for 24 hours from the first antimicrobial trial, removed, dried, washed with distilled H2O, dried re-innoculated with Arthrobacter and retested.
# bacterial strains = conditions: strain not stated; cited from earlier work
# Salmonella interiditis = test: Minimum inhibitory concentration determination; format: cell-based; conditions: 1% stock solution in H2O, stabilized or no stabilizer
# Experimental: (§5) Solutions of phosphonate antimicrobials (0.01 g/mL or 1%) were dissolved in H2O or ethanol, inoculated with the test organism and serially diluted from 10^−1-10^−3, representing a dilution range from 0.01 g/mL to 0.00001 g/mL, followed by plate counts to determine the minimum inhibitory concentration (MIC) values. Test organisms included gram-positive and gram-negative bacterial strains: Staphylococcus aureus, Listeria monocytogenes, Salmonella interiditis, and Escherichia coli.
# (§6) Sample 1 was a 1% solution of compound 3; sample 2 was 1% solution of the sodium salt of compound 3; sample 3 was a 1% solution of compound 3 prepared by HCl dealkylation of N-(3-diisopropoxyphosphorylpropyl)-N,N-dimethyloctadecan-1-ammonium bromide.
# Escherichia coli [7] = test: Minimum inhibitory concentration determination; format: cell-based; conditions: 1% stock solution in H2O, stabilized or no stabilizer
# Experimental: as §5, §6
# Listeria monocytogenes [8] = test: Minimum inhibitory concentration determination; format: cell-based; conditions: 1% stock solution in H2O, stabilized or no stabilizer
# Experimental: as §5, §6
SMILES,melting point [°C],change in colony forming units (cfu) (Klebsiella pneumonia),change in colony forming units (cfu) (Pseudomonas sp. CT07),change in colony forming units (cfu) (Salmonella enteriditis),bacterial colonies (cfu) on treated titanium surface (Salmonella),bacterial colonies (cfu) on treated titanium surface (S. aureus),change in colony forming units (cfu) (Escherichia coli [2]),antibacterial activity compared to BSC (Listeria monocytogenes [3]),change in colony forming units (cfu) (Pseudomonas PA01),change in colony forming units (cfu) (Staphylococcus aureus [4]),change in colony forming units (cfu) (Arthrobacter [5]),other results
CCCCCCCCCCCCCCCCCC[N+](C)(C)CCCP(=O)(OC(C)C)OC(C)C.[Br-],54 to 55,–,–,–,–,–,–,–,–,–,–,–
"CCCCCCCCCCCCCCCCCC[N+](C)(C)CCCP(=O)(OCC)OCC.[Br-] [compound 2, N-(3-diethoxyphosphorylpropyl)-N,N-dimethyloctadecan-1-ammonium Bromide]",–,eradication,eradication,eradication,significant reduction of bacterial colonies,significant reduction of bacterial colonies,eradication,comparable antibacterial activity,eradication,eradication,eradication,"visible colonies around or on the samples (P. aeroguinosa): no visible colonies; inhibition of S. aureus (Staphylococcus aureus [1]; 1% solution, even at 100 μg/mL concentrations): highly inhibitory; change in colony forming units (cfu) (Listeria monocytogenes [3]; after 24 hours): completely eradicated; colony reductions (Arthrobacter [6]): 10^6 to 0"
"CCCCCCCCCCCCCCCCCC[N+](C)(C)CCC[Si](OC)(OC)OC.[Cl-] [BSC, N-(3-(trimethoxy)silylpropyl)-N,N-dimethyloctadecan-1-ammonium chloride]",–,–,–,–,–,–,–,–,–,–,–,"literature MIC values (bacterial strains): 84 µg/mL; concentration at which strain was inhibited (Staphylococcus aureus [1]; 1% stock solution in H2O, stabilized or no stabilizer): ≤ 100 µg/mL; concentration at which strain was inhibited (Salmonella interiditis): ≤ 100 µg/mL; concentration at which strain was inhibited (Escherichia coli [7]): ≤ 100 µg/mL; concentration at which strain was inhibited (Listeria monocytogenes [8]): ≤ 100 µg/mL; time to eradication compared to the four hours of S1/S2 (Escherichia coli [2]): took longer"
"CCCCCCCCCCCCCCCCCC[N+](C)(C)CCCP(=O)(O)O [compound 3, N-(3-phosphonopropyl)-N,N-dimethyloctadecan-1-ammonium Bromide]",118 to 120,eradication,eradication,eradication,eradication,eradication,eradication,comparable antibacterial activity,eradication,eradication,eradication,–
